Results reported in publication PMC6008465 (British Journal of Cancer, 2018).

Test system: patients with advanced solid tumours
Experiment: Phase 1 Part A (dose escalation): safety, DLT, MTD
Assay type: in vivo, human
Procedure: The primary objectives of this phase 1 study were to evaluate the safety, tolerability, and MTD of once-weekly (Schedule I) and twice-weekly (Schedule II) dosing. Secondary objectives included evaluation of the PK profile of E6201. […] Toxicity was managed by dose interruption, reduction, and/or discontinuation. Only Cycle 1 adverse events (AEs) were evaluable as DLTs. Based on AEs reported at 480 mg/m^2 and 400 mg/m^2, the protocol was amended to include up to 6 additional toxicity-evaluable patients at 320 mg/m^2, to confirm this as the MTD. All ongoing patients could continue at 320 mg/m^2, regardless of initial starting dose.
Safety was assessed by monitoring AEs, serious AEs (SAEs), laboratory parameters, vital signs, 12-lead electrocardiograms (ECGs), Eastern Cooperative Oncology Group performance status, and symptom-directed physical and neurologic examination findings. AEs were graded by investigators based on the National Cancer Institute Common Terminology Criteria for Adverse Events, version 3.[16]

CCNc1cc(O)c2c(c1)/C=C/C[C@H](O)[C@H](O)C(=O)/C=C\[C@@H](C)[C@H](C)OC2=O [E6201, (3S,4R,5Z,8S,9S,11E)-14-(ethylamino)-8,9,16-trihydroxy-3,4-dimethyl-3,4,9,19-tetrahydro-1H-2-benzoxacyclotetradecine-1,7 (8H)-dione]
Patients who discontinued treatment due to SAEs (Part A): Two
Patients with grade 1/2 eye disorders (Part A (160 and 320 mg/m^2 groups)): two
Nausea TEAE, patients (Part A overall, 9 patients): 36%
Abdominal pain TEAE incidence, All grades (Part A, 20 mg/m^2 (n=4)): 1 (25.0) n (%)
Abdominal pain TEAE incidence, G≥3 (Part A, 20 mg/m^2 (n=4)): 0 n (%)
Constipation TEAE incidence, All grades (Part A, 20 mg/m^2 (n=4)): 1 (25.0) n (%)
Constipation TEAE incidence, G≥3 (Part A, 20 mg/m^2 (n=4)): 0 n (%)
Decreased appetite TEAE incidence, All grades (Part A, 20 mg/m^2 (n=4)): 1 (25.0) n (%)
Decreased appetite TEAE incidence, G≥3 (Part A, 20 mg/m^2 (n=4)): 0 n (%)
Fatigue TEAE incidence, All grades (Part A, 20 mg/m^2 (n=4)): 1 (25.0) n (%)
Fatigue TEAE incidence, G≥3 (Part A, 20 mg/m^2 (n=4)): 0 n (%)
Hypokalemia TEAE incidence, All grades (Part A, 20 mg/m^2 (n=4)): 1 (25.0) n (%)
Hypokalemia TEAE incidence, G≥3 (Part A, 20 mg/m^2 (n=4)): 0 n (%)
Nausea TEAE incidence, All grades (Part A, 20 mg/m^2 (n=4)): 1 (25.0) n (%)
Nausea TEAE incidence, G≥3 (Part A, 20 mg/m^2 (n=4)): 0 n (%)
Peripheral edema TEAE incidence, All grades (Part A, 20 mg/m^2 (n=4)): 1 (25.0) n (%)
Peripheral edema TEAE incidence, G≥3 (Part A, 20 mg/m^2 (n=4)): 0 n (%)
Vomiting TEAE incidence, All grades (Part A, 20 mg/m^2 (n=4)): 0 n (%)
Vomiting TEAE incidence, G≥3 (Part A, 20 mg/m^2 (n=4)): 0 n (%)
Abdominal pain TEAE incidence, All grades (Part A, 40 mg/m^2 (n=3)): 1 (33.3) n (%)
Abdominal pain TEAE incidence, G≥3 (Part A, 40 mg/m^2 (n=3)): 0 n (%)
Constipation TEAE incidence, All grades (Part A, 40 mg/m^2 (n=3)): 0 n (%)
Constipation TEAE incidence, G≥3 (Part A, 40 mg/m^2 (n=3)): 0 n (%)
Decreased appetite TEAE incidence, All grades (Part A, 40 mg/m^2 (n=3)): 0 n (%)
Decreased appetite TEAE incidence, G≥3 (Part A, 40 mg/m^2 (n=3)): 0 n (%)
Fatigue TEAE incidence, All grades (Part A, 40 mg/m^2 (n=3)): 0 n (%)
Fatigue TEAE incidence, G≥3 (Part A, 40 mg/m^2 (n=3)): 0 n (%)
Hypokalemia TEAE incidence, All grades (Part A, 40 mg/m^2 (n=3)): 1 (33.3) n (%)
Hypokalemia TEAE incidence, G≥3 (Part A, 40 mg/m^2 (n=3)): 0 n (%)
Nausea TEAE incidence, All grades (Part A, 40 mg/m^2 (n=3)): 1 (33.3) n (%)
Nausea TEAE incidence, G≥3 (Part A, 40 mg/m^2 (n=3)): 0 n (%)
Peripheral edema TEAE incidence, All grades (Part A, 40 mg/m^2 (n=3)): 0 n (%)
Peripheral edema TEAE incidence, G≥3 (Part A, 40 mg/m^2 (n=3)): 0 n (%)
Vomiting TEAE incidence, All grades (Part A, 40 mg/m^2 (n=3)): 1 (33.3) n (%)
Vomiting TEAE incidence, G≥3 (Part A, 40 mg/m^2 (n=3)): 0 n (%)
Abdominal pain TEAE incidence, All grades (Part A, 80 mg/m^2 (n=3)): 0 n (%)
Abdominal pain TEAE incidence, G≥3 (Part A, 80 mg/m^2 (n=3)): 0 n (%)
Constipation TEAE incidence, All grades (Part A, 80 mg/m^2 (n=3)): 1 (33.3) n (%)
Constipation TEAE incidence, G≥3 (Part A, 80 mg/m^2 (n=3)): 0 n (%)
Decreased appetite TEAE incidence, All grades (Part A, 80 mg/m^2 (n=3)): 0 n (%)
Decreased appetite TEAE incidence, G≥3 (Part A, 80 mg/m^2 (n=3)): 0 n (%)
Fatigue TEAE incidence, All grades (Part A, 80 mg/m^2 (n=3)): 0 n (%)
Fatigue TEAE incidence, G≥3 (Part A, 80 mg/m^2 (n=3)): 0 n (%)
Hypokalemia TEAE incidence, All grades (Part A, 80 mg/m^2 (n=3)): 0 n (%)
Hypokalemia TEAE incidence, G≥3 (Part A, 80 mg/m^2 (n=3)): 0 n (%)
Nausea TEAE incidence, All grades (Part A, 80 mg/m^2 (n=3)): 0 n (%)
Nausea TEAE incidence, G≥3 (Part A, 80 mg/m^2 (n=3)): 0 n (%)
Peripheral edema TEAE incidence, All grades (Part A, 80 mg/m^2 (n=3)): 1 (33.3) n (%)
Peripheral edema TEAE incidence, G≥3 (Part A, 80 mg/m^2 (n=3)): 0 n (%)
Vomiting TEAE incidence, All grades (Part A, 80 mg/m^2 (n=3)): 0 n (%)
Vomiting TEAE incidence, G≥3 (Part A, 80 mg/m^2 (n=3)): 0 n (%)
Abdominal pain TEAE incidence, All grades (Part A, 160 mg/m^2 (n=3)): 1 (33.3) n (%)
Abdominal pain TEAE incidence, G≥3 (Part A, 160 mg/m^2 (n=3)): 1 (33.3) n (%)
Constipation TEAE incidence, All grades (Part A, 160 mg/m^2 (n=3)): 1 (33.3) n (%)
Constipation TEAE incidence, G≥3 (Part A, 160 mg/m^2 (n=3)): 0 n (%)
Decreased appetite TEAE incidence, All grades (Part A, 160 mg/m^2 (n=3)): 1 (33.3) n (%)
Decreased appetite TEAE incidence, G≥3 (Part A, 160 mg/m^2 (n=3)): 0 n (%)
Fatigue TEAE incidence, All grades (Part A, 160 mg/m^2 (n=3)): 1 (33.3) n (%)
Fatigue TEAE incidence, G≥3 (Part A, 160 mg/m^2 (n=3)): 0 n (%)
Hypokalemia TEAE incidence, All grades (Part A, 160 mg/m^2 (n=3)): 0 n (%)
Hypokalemia TEAE incidence, G≥3 (Part A, 160 mg/m^2 (n=3)): 0 n (%)
Nausea TEAE incidence, All grades (Part A, 160 mg/m^2 (n=3)): 1 (33.3) n (%)
Nausea TEAE incidence, G≥3 (Part A, 160 mg/m^2 (n=3)): 0 n (%)
Peripheral edema TEAE incidence, All grades (Part A, 160 mg/m^2 (n=3)): 1 (33.3) n (%)
Peripheral edema TEAE incidence, G≥3 (Part A, 160 mg/m^2 (n=3)): 0 n (%)
Vomiting TEAE incidence, All grades (Part A, 160 mg/m^2 (n=3)): 1 (33.3) n (%)
Vomiting TEAE incidence, G≥3 (Part A, 160 mg/m^2 (n=3)): 0 n (%)
Abdominal pain TEAE incidence, All grades (Part A, 320 mg/m^2 (n=7)): 2 (28.6) n (%)
Abdominal pain TEAE incidence, G≥3 (Part A, 320 mg/m^2 (n=7)): 1 (14.3) n (%)
Constipation TEAE incidence, All grades (Part A, 320 mg/m^2 (n=7)): 2 (28.6) n (%)
Constipation TEAE incidence, G≥3 (Part A, 320 mg/m^2 (n=7)): 0 n (%)
Decreased appetite TEAE incidence, All grades (Part A, 320 mg/m^2 (n=7)): 2 (28.6) n (%)
Decreased appetite TEAE incidence, G≥3 (Part A, 320 mg/m^2 (n=7)): 1 (14.3) n (%)
Fatigue TEAE incidence, All grades (Part A, 320 mg/m^2 (n=7)): 3 (42.9) n (%)
Fatigue TEAE incidence, G≥3 (Part A, 320 mg/m^2 (n=7)): 1 (14.3) n (%)
Hypokalemia TEAE incidence, All grades (Part A, 320 mg/m^2 (n=7)): 2 (28.6) n (%)
Hypokalemia TEAE incidence, G≥3 (Part A, 320 mg/m^2 (n=7)): 0 n (%)
